Assay results from US11111238B2, “Coumarin derivatives, processes for their preparation and uses thereof for the treatment of cancer” (Lead Discovery Center GmbH, priority 2017, dated 2021).
pIC50: −log10 of the molar value.

target: mitochondrial RNA-polymerase (POLRMT) (Mus musculus, UniProt Q8BKF1); assay: Homogeneous TR-FRET assay for mitochondrial transcription activity; type: biochemical; conditions: homogeneous TR-FRET assay according to Example 4; activity class
Source text: The TR-FRET assay was basically conducted as described in WO2016/193,231A1, especially as described in example 1 (hereby incorporated by reference). With respect to the background of the mitochondrial transcription it is referred to Falkenberg et al. (2002) and Posse et al. (Posse et al., 2015). The method monitors the activity of mitochondrial RNA-polymerase via detection of the formation of its product, a 407 bp long RNA sequence. Detection of the product is facilitated by hybridization of two DNA-oligonucleotide probes to specific and adjacent sequences within the RNA product sequence. Upon annealing of the probes, two fluorophores that are coupled directly to an acceptor nucleotide probe (ATT0647, 5′) or introduced via a coupled streptavidin interacting with a biotinylated donor nucleotide probe on the other side (Europium cryptate, 3′) are brought into sufficient proximity to serve as a fluorescence-donor-acceptor pair as generally described in Walters and Namchuk (2003). Thus, a FRET signal at 665 nm is generated upon excitation at 340 nm.
Briefly, the protocol described here was applied for screening and activity determination in a low-volume 384-well microtiter plate with non-binding surface. For high-throughput application in the 1536-well microtiter plate format, volumes of the reagent mixes were adjusted, maintaining the volumetric ratio. Proteins POLRMT (NM_172551.3), TFAM (NM_009360.4) and TFB2 M (NM_008249.4) were diluted from their stocks to working concentrations of 150 nM, 1.8 μM and 330 nM respectively, in a dilution buffer containing 100 mM Tris-HCl pH 8.0, 200 mM NaCl, 10% (v/v) glycerole, 2 mM glutathione (GSH), 0.5 mM EDTA and 0.1 mg/mL BSA. Protein dilutions and template DNA, comprising a pUC18 plasmid encoding the mitochondrial light strand promoter, restriction linearized proximal to the promoter 3′-end (pUC-LSP), were mixed at the twofold final assay-concentration in a reaction buffer, containing 10 mM Tris-HCl pH 7.5, 10 mM MgCl2, 40 mM NaCl, 2 mM GSH, 0.01% (w/v) Tween-20 and 0.1 mg/mL BSA.
5 μL of this mix were dispensed, depending on the chosen microtiter plate format, using multi-channel pipettes or a Multidrop® dispenser (Thermo Fisher Scientific, Waltham Mass.) into the wells of a microtiter plate and incubated at room temperature (RT) for 10 min. Chemical compounds under scrutiny in the assay were applied using contact-free acoustic droplet-dispensing (Echo520® Labcyte Inc., Sunnyvale Calif.) from 10 mM compound stocks in 100% DMSO, to a final concentration of 10 μM or in serial dilution series of the required concentration range. Equal amounts of DMSO without any compound were added to positive control samples, followed by an incubation step at RT for 10 min.
The enzymatic reaction was started by the addition of 5 μL of a mix of […] in reaction buffer to a final concentration of 500 μM each. No nucleotide mix was added to negative control samples. The content of the wells was mixed using a VarioTeleshaker™ (Thermo Fisher Scientific, Waltham Mass.) at 1,500 rpm for 45 sec after which the microtiter plate was centrifuged at 500×g for 1 min. The samples were incubated for 2 h at RT with humidity control to avoid evaporation. The detection reagents were prepared in a buffer that was composed, such that the enzymatic reaction was terminated due to chelating of Mg-ions and increased ionic strength, containing 50 mM Tris-HCl pH 7.5, 700 mM NaCl, 20 mM EDTA, and 0.01% (w/v) Tween-20. Importantly Eu-cryptate-coupled streptavidin had to be pre-incubated with a 100-fold molar excess of a random sequence oligonucleotide for 10 min at RT in the dark to block unspecific binding of single stranded RNA to the protein. Subsequently, the blocked streptavidin(—Eu) was mixed with the DNA-probes on ice and kept away from light until use. […]

Chain of mitochondrial RNA-polymerase (POLRMT) (Q8BKF1 42-1207): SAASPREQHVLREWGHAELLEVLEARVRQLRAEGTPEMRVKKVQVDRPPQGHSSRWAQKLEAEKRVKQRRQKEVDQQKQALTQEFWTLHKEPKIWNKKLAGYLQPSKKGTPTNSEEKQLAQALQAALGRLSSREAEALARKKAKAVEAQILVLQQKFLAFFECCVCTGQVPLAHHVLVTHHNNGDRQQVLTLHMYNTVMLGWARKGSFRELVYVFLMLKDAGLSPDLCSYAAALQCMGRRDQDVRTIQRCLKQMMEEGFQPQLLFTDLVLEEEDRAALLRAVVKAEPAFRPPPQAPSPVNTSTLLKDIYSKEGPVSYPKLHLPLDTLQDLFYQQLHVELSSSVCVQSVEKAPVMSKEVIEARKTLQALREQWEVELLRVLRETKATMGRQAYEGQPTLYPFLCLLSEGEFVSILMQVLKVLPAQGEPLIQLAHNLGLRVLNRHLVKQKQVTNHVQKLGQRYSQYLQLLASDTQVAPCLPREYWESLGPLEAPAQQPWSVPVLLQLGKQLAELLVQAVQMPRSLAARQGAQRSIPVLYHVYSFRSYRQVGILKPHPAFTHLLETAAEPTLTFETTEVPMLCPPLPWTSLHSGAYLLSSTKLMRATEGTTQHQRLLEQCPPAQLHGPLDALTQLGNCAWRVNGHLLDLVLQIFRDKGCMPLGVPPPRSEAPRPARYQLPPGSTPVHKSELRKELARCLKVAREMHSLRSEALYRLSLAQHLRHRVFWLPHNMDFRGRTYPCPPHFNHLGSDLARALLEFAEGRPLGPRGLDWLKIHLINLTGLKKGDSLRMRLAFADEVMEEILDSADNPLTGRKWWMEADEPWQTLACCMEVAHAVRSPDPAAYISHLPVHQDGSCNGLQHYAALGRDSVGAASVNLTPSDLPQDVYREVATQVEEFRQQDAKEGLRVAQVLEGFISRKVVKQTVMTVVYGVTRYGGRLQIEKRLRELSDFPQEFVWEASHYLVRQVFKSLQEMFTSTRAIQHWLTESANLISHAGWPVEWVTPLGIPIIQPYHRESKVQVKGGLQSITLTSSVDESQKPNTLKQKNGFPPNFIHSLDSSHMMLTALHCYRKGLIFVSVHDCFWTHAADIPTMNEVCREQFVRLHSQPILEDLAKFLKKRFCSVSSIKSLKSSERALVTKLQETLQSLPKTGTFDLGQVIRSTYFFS

Row | SMILES | pIC50
1 | CC(Oc1ccc2c(-c3ccccc3Cl)cc(=O)oc2c1)C(=O)N1CCCC(C#N)C1 (stereo not drawn) [Compound 48, 1-[2-[4-(2-chlorophenyl)-2-oxo-chromen-7-yl]oxypropanoyl]piperidine-3-carbonitrile] | > 7.70
2 | CC(C)NC(=O)C(C)Oc1ccc2c(-c3cccc(F)c3Cl)cc(=O)oc2c1 (stereo not drawn) [Compound 49, 2-[4-(2-chloro-3-fluoro-phenyl)-2-oxo-chromen-7-yl]oxy-N-isopropyl-propanamide] | > 7.70
3 | CC(Oc1ccc2c(-c3cccc(F)c3Cl)cc(=O)oc2c1)C(=O)N1CCC[C@H](C(=O)O)C1 (stereo partly drawn) [Compound 50, (3S)-1-[2-[4-(2-chloro-3-fluoro-phenyl)-2-oxo-chromen-7-yl]oxypropanoyl]piperidine-3-carboxylic acid] | > 7.70
4 | CNC(=O)C(C)Oc1ccc2c(-c3ccccc3Cl)cc(=O)oc2c1 (stereo not drawn) [Compound 51, 2-[4-(2-chlorophenyl)-2-oxo-chromen-7-yl]oxy-N-methyl-propanamide] | > 7.70
5 | CC(Oc1ccc2c(-c3cccc(F)c3Cl)cc(=O)oc2c1)C(=O)N1CCCC(S(N)(=O)=O)C1 (stereo not drawn) [Compound 52, 1-[2-[4-(2-chloro-3-fluoro-phenyl)-2-oxo-chromen-7-yl]oxypropanoyl]piperidine-3-sulfonamide] | > 7.70
6 | Cc1ccccc1-c1cc(=O)oc2cc(OC(C)C(=O)N3CCC[C@@H](C(=O)O)C3)ccc12 (stereo partly drawn) [Compound 53, (3R)-1-[2-[4-(o-tolyl)-2-oxo-chromen-7-yl]oxypropanoyl]piperidine-3-carboxylic acid] | > 7.70
7 | Cc1ccccc1-c1cc(=O)oc2cc(O[C@H](C)C(=O)OC(C)C)ccc12 [Compound 55, (R)-isopropyl 2-((2-oxo-4-(o-tolyl)-2H-chromen-7-yl)oxy)propanoate] | > 7.70
8 | CCOC(=O)C(C)Oc1ccc2c(-c3cccc(F)c3Cl)cc(=O)oc2c1 (stereo not drawn) [Compound 57, ethyl 2-[4-(2-chloro-3-fluoro-phenyl)-2-oxo-chromen-7-yl]oxypropanoate] | 7.00 to 7.70
9 | CCOC(=O)C(C)Oc1ccc2c(-c3ccccc3C)cc(=O)oc2c1 (stereo not drawn) [Compound 58, ethyl 2-[4-(o-tolyl)-2-oxo-chromen-7-yl]oxypropanoate] | 7.00 to 7.70
10 | Cc1ccccc1-c1cc(=O)oc2cc(OC(C)C(=O)N3CCC(CC(=O)O)CC3)ccc12 (stereo not drawn) [Compound 60, 2-[1-[2-[4-(o-tolyl)-2-oxo-chromen-7-yl]oxypropanoyl]-4-piperidyl]acetic acid] | 7.00 to 7.70
11 | CC(Oc1ccc2c(-c3cccc(F)c3Cl)cc(=O)oc2c1)C(=O)NC1CC1 (stereo not drawn) [Compound 61, 2-[4-(2-chloro-3-fluoro-phenyl)-2-oxo-chromen-7-yl]oxy-N-cyclopropyl-propanamide] | 7.00 to 7.70
12 | Cc1ccccc1-c1cc(=O)oc2cc(OC(C)C(=O)N3CCC(S(N)(=O)=O)C3)ccc12 (stereo not drawn) [Compound 63, 1-[2-[4-(o-tolyl)-2-oxo-chromen-7-yl]oxypropanoyl]pyrrolidine-3-sulfonamide] | 7.00 to 7.70
13 | CC(C)OC(=O)[C@@H](C)Oc1ccc2c(-c3ccccc3Cl)cc(=O)oc2c1 [Compound 64, isopropyl (2R)-2-[4-(2-chlorophenyl)-2-oxo-chromen-7-yl]oxypropanoate] | 7.00 to 7.70
14 | CC(C)NC(=O)C(C)Oc1ccc2c(-c3ccc(F)cc3Cl)cc(=O)oc2c1 (stereo not drawn) [Compound 65, 2-[4-(2-chloro-4-fluoro-phenyl)-2-oxo-chromen-7-yl]oxy-N-isopropyl-propanamide] | 7.00 to 7.70
15 | CC(Oc1ccc2c(-c3ccccc3Cl)cc(=O)oc2c1)C(=O)N1CCC[C@@H](C(=O)N(C)C)C1 (stereo partly drawn) [Compound 67, (3R)-1-[2-[4-(2-chlorophenyl)-2-oxo-chromen-7-yl]oxypropanoyl]-N,N-dimethyl-piperidine-3-carboxamide] | 7.00 to 7.70
16 | CCNC(=O)C(C)Oc1ccc2c(-c3cccc(F)c3Cl)cc(=O)oc2c1 (stereo not drawn) [Compound 68, 2-[4-(2-chloro-3-fluoro-phenyl)-2-oxo-chromen-7-yl]oxy-N-ethyl-propanamide] | 7.00 to 7.70
17 | Cc1ccccc1-c1cc(=O)oc2cc(OC(C)C(=O)N3CCC(F)(F)CC3)ccc12 (stereo not drawn) [Compound 71, 7-[2-(4,4-difluoro-1-piperidyl)-1-methyl-2-oxo-ethoxy]-4-(o-tolyl)chromen-2-one] | 7.00 to 7.70
18 | Cc1ccccc1-c1cc(=O)oc2cc(OC(C)C(=O)N3CCCC(CC(=O)O)C3)ccc12 (stereo not drawn) [Compound 72, 2-[1-[2-[4-(o-tolyl)-2-oxo-chromen-7-yl]oxypropanoyl]-3-piperidyl]acetic acid] | 7.00 to 7.70
19 | Cc1ccccc1-c1cc(=O)oc2cc(OC(C)C(=O)N3CCCC(S(C)(=N)=O)C3)ccc12 (stereo not drawn) [Compound 73, 7-[1-methyl-2-[3-(methylsulfonimidoyl)-1-piperidyl]-2-oxo-ethoxy]-4-(o-tolyl)chromen-2-one] | 7.00 to 7.70
20 | CC(Oc1ccc2c(-c3ccccc3Cl)cc(=O)oc2c1)C(=O)N1CCC(F)(F)CC1 (stereo not drawn) [Compound 74, 4-(2-chlorophenyl)-7-[2-(4,4-difluoro-1-piperidyl)-1-methyl-2-oxo-ethoxy]chromen-2-one] | 7.00 to 7.70
21 | CCOC(=O)C1(C)CCCN(C(=O)C(C)Oc2ccc3c(-c4ccccc4Cl)cc(=O)oc3c2)C1 (stereo not drawn) [Compound 75, ethyl 1-[2-[4-(2-chlorophenyl)-2-oxo-chromen-7-yl]oxypropanoyl]-3-methyl-piperidine-3-carboxylate] | 7.00 to 7.70
22 | CC(Oc1ccc2c(-c3ccccc3Cl)cc(=O)oc2c1)C(=O)N1CCC[C@H](C(=O)N(C)C)C1 (stereo partly drawn) [Compound 76, (3S)-1-[2-[4-(2-chlorophenyl)-2-oxo-chromen-7-yl]oxypropanoyl]-N,N-dimethyl-piperidine-3-carboxamide] | 7.00 to 7.70
23 | CC(Oc1ccc2c(-c3ccccc3Cl)cc(=O)oc2c1)C(=O)N1CCC(S(N)(=O)=O)C1 (stereo not drawn) [Compound 77, 1-[2-[4-(2-chlorophenyl)-2-oxo-chromen-7-yl]oxypropanoyl]pyrrolidine-3-sulfonamide] | 7.00 to 7.70
24 | CCOC(=O)C(C)Oc1ccc2c(-c3ccc(F)cc3Cl)cc(=O)oc2c1 (stereo not drawn) [Compound 82, Ethyl 2-((4-(2-chloro-4-fluorophenyl)-2-oxo-2H-chromen-7-yl)oxy)propanoate] | 7.00 to 7.70
25 | COC(=O)CC1CCN(C(=O)C(C)Oc2ccc3c(-c4ccccc4C)cc(=O)oc3c2)CC1 (stereo not drawn) [Compound 83, methyl 2-[1-[2-[4-(o-tolyl)-2-oxo-chromen-7-yl]oxypropanoyl]-4-piperidyl]acetate] | 7.00 to 7.70
26 | CCOC(=O)CC1CCCN(C(=O)C(C)Oc2ccc3c(-c4ccccc4C)cc(=O)oc3c2)C1 (stereo not drawn) [Compound 87, ethyl 2-[1-[2-[4-(o-tolyl)-2-oxo-chromen-7-yl]oxypropanoyl]-3-piperidyl]acetate] | 7.00 to 7.70
27 | CCOC(=O)C1(C)CCCN(C(=O)C(C)Oc2ccc3c(-c4ccccc4C)cc(=O)oc3c2)C1 (stereo not drawn) [Compound 88, ethyl 3-methyl-1-[2-[4-(o-tolyl)-2-oxo-chromen-7-yl]oxypropanoyl]piperidine-3-carboxylate] | 7.00 to 7.70
28 | CC(Oc1ccc2c(-c3ccc(F)cc3Cl)cc(=O)oc2c1)C(=O)NC1CC1 (stereo not drawn) [Compound 90, 2-[4-(2-chloro-4-fluoro-phenyl)-2-oxo-chromen-7-yl]oxy-N-cyclopropyl-propanamide] | 7.00 to 7.70
29 | CC(Oc1ccc2c(-c3cccc(F)c3Cl)cc(=O)oc2c1)C(=O)O (stereo not drawn) [Compound 94, 2-[4-(2-chloro-3-fluoro-phenyl)-2-oxo-chromen-7-yl]oxypropanoic acid] | 7.00 to 7.70
30 | CCOC(=O)C1(C)CCCN(C(=O)C(C)Oc2ccc3c(-c4ccc(F)cc4Cl)cc(=O)oc3c2)C1 (stereo not drawn) [Compound 95, ethyl 1-[2-[4-(2-chloro-4-fluoro-phenyl)-2-oxo-chromen-7-yl]oxypropanoyl]-3-methyl-piperidine-3-carboxylate] | 6.00 to 7.00
